Measured values taken from patent publication EP4578856A1, “HETEROCYCLIC COMPOUND” (Ubience Inc., priority 2022, dated 2024).

Experiments:
FAK protein [1] = target: T1, FAK protein (Homo sapiens, UniProt Q05397); experiment: Degradation inducing activity of FAK protein in PA-1 cells, Western blotting (Simple Western JESS); type: cell-based; design: endogenous in cells; host or cells: PA-1 (ATCC CRL-1572); details: at 10 µM, 24 hours
Procedure: In vitro degradation inducing activity of FAK protein of compounds of Examples was evaluated by Western Blotting (WB).
By a test compound, 10 mM DMSO solution was prepared, which was used as a 10 µM test compound solution. Further, the solution was diluted 10-fold with DMSO to prepare a 1 mM solution, which was used as a 1 µM test compound solution.
PA-1 cells (ATCC: CRL-1572, Lot: 70055709) were cultured in Eagle's Minimum Essential Medium supplemented with 10% FBS and 1% Penicillin/Streptomycin. The PA-1 cells seeded in a 24 well plate at 200,000 cells/well/1 mL were cultured for 24 hours, and then 1 µL of DMSO or a test compound solution was added thereto and treatment was performed for 24 hours. Cells were harvested and lysed for 20 minutes on ice using RIPA lysis buffer (Sigma, Cat#R0278) supplemented with protease inhibitor cocktail (Sigma, Cat#P8340; Roche, Cat#P11873580001), and phosphatase inhibitor cocktail (Sigma, Cat#P5726, P0044). The lysate was sonicated (15 seconds, amplitude 30%, 1 cycle) and then centrifuged at 12500 rpm for 15 minutes at 4°C. The protein concentration was determined by BCA assay kit (Thermo Fisher Scientific, Cat#23225).
The western blotting was performed using Simple Western JESS (protein simple). A cell lysis sample (protein amount; about 2 µg) was loaded on a plate of Simple Western JESS, and the expression level of […] was detected using a 12-230 kDa Wes Separation Module (Protein simple, Cat#SM-WO04), an Anti-Rabbit Detection Module for Wes (Protein simple, Cat#DM-001), and a Total Protein Detection Module for Wes (Protein simple, Cat#DM-TP01). As the primary antibody, a material obtained by diluting FAK Rabbit mAb (Cell Signaling Technology, Cat#3285) at 1:100 was used, and as the secondary antibody, a material obtained by diluting HRP-labeled anti-rabbit IgG antibody (Cell Signaling Technology, Cat#7074S) at 1:250 was used. The expression level of the target protein was standardized using the total protein amount loaded as a reference. The standardized expression level data of the control (DMSO) was taken as 100%, and the degradation rate (%) was calculated from the average standardized expression level data of the test compounds (compounds of Examples 109 to 128). All analysis steps, such as data detection and analysis, are fully automated.
Target sequence in this assay (Q05397 whole entry): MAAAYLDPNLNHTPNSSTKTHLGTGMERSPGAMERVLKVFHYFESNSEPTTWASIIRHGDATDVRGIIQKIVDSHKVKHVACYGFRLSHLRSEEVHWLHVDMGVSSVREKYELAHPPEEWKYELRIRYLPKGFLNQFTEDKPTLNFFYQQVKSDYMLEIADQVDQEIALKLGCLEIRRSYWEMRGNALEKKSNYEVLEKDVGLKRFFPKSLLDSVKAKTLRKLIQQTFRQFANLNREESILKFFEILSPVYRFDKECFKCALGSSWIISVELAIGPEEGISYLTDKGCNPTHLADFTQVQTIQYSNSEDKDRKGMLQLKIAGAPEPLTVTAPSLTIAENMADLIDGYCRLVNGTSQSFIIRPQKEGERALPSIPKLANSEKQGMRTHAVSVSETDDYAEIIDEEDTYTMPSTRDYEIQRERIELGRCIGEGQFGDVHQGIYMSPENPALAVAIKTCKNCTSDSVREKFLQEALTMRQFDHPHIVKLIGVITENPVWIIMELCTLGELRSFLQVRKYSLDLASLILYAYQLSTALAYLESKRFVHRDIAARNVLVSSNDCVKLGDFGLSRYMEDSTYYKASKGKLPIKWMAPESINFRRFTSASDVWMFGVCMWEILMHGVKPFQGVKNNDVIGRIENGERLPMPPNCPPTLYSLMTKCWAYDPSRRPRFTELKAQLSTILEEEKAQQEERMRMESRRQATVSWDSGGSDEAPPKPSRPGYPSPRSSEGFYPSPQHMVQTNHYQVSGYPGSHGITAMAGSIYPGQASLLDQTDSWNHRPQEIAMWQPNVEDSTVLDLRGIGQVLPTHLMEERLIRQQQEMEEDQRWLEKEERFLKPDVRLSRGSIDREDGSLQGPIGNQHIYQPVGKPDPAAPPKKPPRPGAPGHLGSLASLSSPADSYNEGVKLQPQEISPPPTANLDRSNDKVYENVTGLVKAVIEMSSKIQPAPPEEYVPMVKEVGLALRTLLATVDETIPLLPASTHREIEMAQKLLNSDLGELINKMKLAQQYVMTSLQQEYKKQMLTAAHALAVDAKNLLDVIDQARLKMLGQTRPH

FAK protein [2] = target: T1, FAK protein; experiment: FAK kinase inhibitory activity, mobility shift assay (MSA, Carna Biosciences); type: biochemical; design: GST (N); purchased Carna Biosciences, Inc; host or cells: baculovirus expression system; details: inhibition rate at 30 nM; reaction time 5 hours
Procedure: The FAK kinase inhibitory activity was measured using a mobility shift assay (MSA) provided by Carna Biosciences, Inc.
The test compound was dissolved in DMSO to prepare a 3 µM solution. The solution was further diluted 25 times with an assay buffer (20 mmol/L HEPES, 0.01%Triton (registered trademark) X-100, 1 mmol/L DTT, pH 7.5) to obtain a test compound solution.
Incomplete human FAK kinase was expressed by fusing 376 to 1052 amino acids of Accession No. NP_722560.1 with GST at the N-terminus using the baculovirus expression system. The GST-FAK was purified by glutathione sepharose chromatography. A 4-fold concentration substrate (Blk/Lyntide, 1000 nmol/L)/ATP (25 µmol/L)/metal solution (Mg, 5 mmol/L) was prepared with kit buffer (20 mmol/L HEPES, 0.01% Triton (registered trademark) X-100, 5 mmol/L DTT, pH 7.5). A 2-fold concentration kinase solution was prepared with assay buffer.
In the same manner as described in Test Example 1, tests and evaluation of inhibitory activity and data analysis were performed. The reaction time was set to 5 hours. […]
Target sequence in this assay (Q05397 376-1052): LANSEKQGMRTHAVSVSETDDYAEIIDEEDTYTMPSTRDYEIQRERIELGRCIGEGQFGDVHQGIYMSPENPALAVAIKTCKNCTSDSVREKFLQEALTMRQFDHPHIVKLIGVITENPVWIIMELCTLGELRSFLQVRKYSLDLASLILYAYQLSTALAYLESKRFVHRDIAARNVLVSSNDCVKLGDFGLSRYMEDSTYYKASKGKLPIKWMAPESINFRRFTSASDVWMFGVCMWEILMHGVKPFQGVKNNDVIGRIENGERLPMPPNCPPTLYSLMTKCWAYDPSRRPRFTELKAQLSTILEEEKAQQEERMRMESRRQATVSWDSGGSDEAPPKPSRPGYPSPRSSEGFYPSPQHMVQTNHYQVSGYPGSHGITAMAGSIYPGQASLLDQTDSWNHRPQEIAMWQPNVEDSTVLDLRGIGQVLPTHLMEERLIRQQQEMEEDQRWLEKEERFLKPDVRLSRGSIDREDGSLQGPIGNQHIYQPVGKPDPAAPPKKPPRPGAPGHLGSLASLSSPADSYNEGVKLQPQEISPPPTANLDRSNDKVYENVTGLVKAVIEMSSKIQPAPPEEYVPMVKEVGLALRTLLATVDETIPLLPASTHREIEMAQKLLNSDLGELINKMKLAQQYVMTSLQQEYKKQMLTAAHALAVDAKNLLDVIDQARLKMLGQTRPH

| SMILES | FAK protein degradation rate (FAK protein [1]) [%] | inhibition at 0.03 µM (FAK protein [2]) [%] |
| --- | --- | --- |
| C[C@@H]1CN(CC(=O)N2CC(C)(C)c3ncc(Cc4ccc(F)cc4)cc32)[C@@H](CN(C)CCOCCOCCOCC(=O)Nc2ccc(Nc3ncc(C(F)(F)F)c(NCc4cccc(S(C)(=O)=O)c4)n3)cc2)CN1 [Example 111, 1-((2R,5R)-1-(2-(6-(4-Fluorobenzyl)-3,3-dimethyl-2,3-dihydro-1H-pyrrolo[3,2-b]pyridin-1-yl)-2-oxoethyl)-5-methylpiperazin-2-yl)-2-methyl-N-(4-((4-((3-(methylsulfonyl)benzyl)amino)-5-(trifluoromethyl)pyrimidin-2-yl)amino)phenyl)-5,8,11-trioxa-2-azatridecan-13-amide] | ≥ 75 | ≥ 75 |
| COC[C@H]1CN[C@H](C)CN1CC(=O)N1CC(C)(C)c2nc(CN3CCN(CCOCC(=O)Nc4ccc(Nc5ncc(C(F)(F)F)c(NCc6cccc(S(C)(=O)=O)c6)n5)cc4)CC3)c(Cc3ccc(F)cc3)cc21 [Example 115, 2-(2-(4-((6-(4-Fluorobenzyl)-1-(2-((2R,5R)-2-(methoxymethyl)-5-methylpiperazin-1-yl)acetyl)-3,3-dimethyl-2,3-dihydro-1H-pyrrolo[3,2-b]pyridin-5-yl)methyl)piperazin-1-yl)ethoxy)-N-(4-((4-((3-(methylsulfonyl)benzyl)amino)-5-(trifluoromethyl)pyrimidin-2-yl)amino)phenyl)acetamide] | ≥ 75 | ≥ 75 |
